# Reference: PubChem BioAssay AID1963868 (Molecular Pharmacology Branch, DTP, NCI, 2024)
# Several values for one entry are separate records, joined by “and”; a condition that tells them apart may be missing. Equal entries are not always repeated.
# System: KRAS PDC tumor spheroids (HUVEC+MSC), viability
# Assay: Anticancer human tumor 254851-301-R-J1-PDC patient-derived colon carcinoma cell line growth inhibition [KRAS2]
# Conditions: for viability, T/C: stronger effect = lower value
# Outline: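 KRAS-mutant tumor cells were grown as spheroids with HUVEC endothelial cells and human MSCs as stroma. Targeted agents were tested alone and with KRAS pathway inhibitors. Doses started at or near clinical Cmax, or 10 microM, descending half-log.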
# [1] = curve of first compound, second compound 0.1 µM
# [2] = curve of first compound, second compound 0.316 µM
# [3] = curve of first compound, second compound 1 µM
# [4] = curve of first compound, second compound 3.16 µM
# [5] = curve of first compound, second compound 10 µM
# [6] = second compound 0.1 µM, first compound 0.0316 µM
# [7] = second compound 0.316 µM, first compound 0.0316 µM
# [8] = second compound 1 µM, first compound 0.0316 µM
# [9] = second compound 3.16 µM, first compound 0.0316 µM
# [10] = second compound 10 µM, first compound 0.0316 µM
# 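Note: spheroids exposed to compounds for seven days before readout.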
# 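Throughout, for viability, T/C: 100% = DMSO vehicle control luminescence of the spheroids.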
smiles,measurement,setting,value
CC(=O)Nc1cccc(-n2c(=O)n(C3CC3)c(=O)c3c(Nc4ccc(I)cc4F)n(C)c(=O)c(C)c32)c1 + COc1cc2nc(C)nc(NC(C)c3cc(N)cc(C(F)(F)F)c3)c2cc1OC1CCOC1,IC50,[1],3.89 nM
same,IC50,[2],4.05 nM
same,IC50,[3],2.77 nM
same,IC50,[4],2.19 nM
same,IC50,[5],0.663 nM
same,"viability, T/C","second compound 0.1 µM, first compound 0.0001 µM",105%
same,"viability, T/C","second compound 0.1 µM, first compound 0.000316 µM",97.8%
same,"viability, T/C","second compound 0.1 µM, first compound 0.001 µM",90.6%
same,"viability, T/C","second compound 0.1 µM, first compound 0.00316 µM",60.4%
same,"viability, T/C","second compound 0.1 µM, first compound 0.01 µM",9.1%
same,"viability, T/C",[6],2.7%
same,"viability, T/C","second compound 0.316 µM, first compound 0.0001 µM",108%
same,"viability, T/C","second compound 0.316 µM, first compound 0.000316 µM",99%
same,"viability, T/C","second compound 0.316 µM, first compound 0.001 µM",94%
same,"viability, T/C","second compound 0.316 µM, first compound 0.00316 µM",62.7%
same,"viability, T/C","second compound 0.316 µM, first compound 0.01 µM",6.64%
same,"viability, T/C",[7],2.56%
same,"viability, T/C","second compound 1 µM, first compound 0.0001 µM",111%
same,"viability, T/C","second compound 1 µM, first compound 0.000316 µM",88.2%
same,"viability, T/C","second compound 1 µM, first compound 0.001 µM",89.9%
same,"viability, T/C","second compound 1 µM, first compound 0.00316 µM",45.8%
same,"viability, T/C","second compound 1 µM, first compound 0.01 µM",5.69%
same,"viability, T/C",[8],2.26%
same,"viability, T/C","second compound 3.16 µM, first compound 0.0001 µM",100%
same,"viability, T/C","second compound 3.16 µM, first compound 0.000316 µM",97.7%
same,"viability, T/C","second compound 3.16 µM, first compound 0.001 µM",85.6%
same,"viability, T/C","second compound 3.16 µM, first compound 0.00316 µM",33.4%
same,"viability, T/C","second compound 3.16 µM, first compound 0.01 µM",4.02%
same,"viability, T/C",[9],2.15%
same,"viability, T/C","second compound 10 µM, first compound 0.0001 µM",84.8%
same,"viability, T/C","second compound 10 µM, first compound 0.000316 µM",72.5%
same,"viability, T/C","second compound 10 µM, first compound 0.001 µM",38%
same,"viability, T/C","second compound 10 µM, first compound 0.00316 µM",3.27%
same,"viability, T/C","second compound 10 µM, first compound 0.01 µM",2.32%
same,"viability, T/C",[10],1.62%
CC(C)n1nc(-c2ccc3oc(N)nc3c2)c2c(N)ncnc21,"viability, T/C",compound 0.000316 µM,107% [middle of 5 runs]
same,"viability, T/C",compound 0.001 µM,99.5% (2×) and 104% (2×) and 101%
same,"viability, T/C",compound 0.00316 µM,92.6% [middle of 5 runs]
same,"viability, T/C",compound 0.01 µM,63.2% [middle of 5 runs]
same,"viability, T/C",compound 0.0316 µM,33.3% [middle of 5 runs]
same,"viability, T/C",compound 0.1 µM,24.5% [middle of 5 runs]
same,IC50,curve of compound,18.9 nM [middle of 4 runs]
CNCc1ccccc1-c1csc(C(C)Nc2nc(C)nc3cc(OC)c(OC)cc23)c1 (stereo not drawn),"viability, T/C",compound 0.1 µM,95.8% [middle of 17 runs]
same,"viability, T/C",compound 0.316 µM,99.9% [middle of 16 runs]
same,"viability, T/C",compound 10 µM,0.17% [middle of 15 runs]
same,IC50,"compound alone, run of 07/12/2021",4.73 µM [middle of 6 runs]
same,IC50,"compound alone, run of 07/19/2021",4.58 µM [middle of 5 runs]
same,IC50,"compound alone, run of 07/26/2021",2.42 µM [middle of 6 runs]
CC1(C)CCC(CN2CCN(c3ccc(C(=O)NS(=O)(=O)c4ccc(NCC5CCOCC5)c([N+](=O)[O-])c4)c(Oc4cnc5[nH]ccc5c4)c3)CC2)=C(c2ccc(Cl)cc2)C1 + CC1OCC2(CCN(c3cnc(Sc4ccnc(N)c4Cl)c(N)n3)CC2)C1N,IC50,[1],> 10000 nM
same,IC50,[2],> 10000 nM
same,IC50,[3],> 10000 nM
same,IC50,[4],5560 nM
same,IC50,[5],2510 nM
same,"viability, T/C",[6],100%
same,"viability, T/C","second compound 0.1 µM, first compound 0.1 µM",104%
same,"viability, T/C","second compound 0.1 µM, first compound 0.316 µM",96.7%
same,"viability, T/C","second compound 0.1 µM, first compound 1 µM",100%
same,"viability, T/C","second compound 0.1 µM, first compound 3.16 µM",97.1%
same,"viability, T/C","second compound 0.1 µM, first compound 10 µM",98.4%
same,"viability, T/C",[7],83.8%
same,"viability, T/C","second compound 0.316 µM, first compound 0.1 µM",91%
same,"viability, T/C","second compound 0.316 µM, first compound 0.316 µM",84.3%
same,"viability, T/C","second compound 0.316 µM, first compound 1 µM",84.1%
same,"viability, T/C","second compound 0.316 µM, first compound 3.16 µM",84.3%
same,"viability, T/C","second compound 0.316 µM, first compound 10 µM",65.7%
same,"viability, T/C",[8],85.1%
same,"viability, T/C","second compound 1 µM, first compound 0.1 µM",89.5%
same,"viability, T/C","second compound 1 µM, first compound 0.316 µM",78.6%
same,"viability, T/C","second compound 1 µM, first compound 1 µM",88.6%
same,"viability, T/C","second compound 1 µM, first compound 3.16 µM",80.7%
same,"viability, T/C","second compound 1 µM, first compound 10 µM",54%
same,"viability, T/C",[9],65.3%
same,"viability, T/C","second compound 3.16 µM, first compound 0.1 µM",73.9%
same,"viability, T/C","second compound 3.16 µM, first compound 0.316 µM",65.3%
same,"viability, T/C","second compound 3.16 µM, first compound 1 µM",69%
same,"viability, T/C","second compound 3.16 µM, first compound 3.16 µM",66.3%
same,"viability, T/C","second compound 3.16 µM, first compound 10 µM",33%
same,"viability, T/C",[10],64.1%
same,"viability, T/C","second compound 10 µM, first compound 0.1 µM",66.1%
same,"viability, T/C","second compound 10 µM, first compound 0.316 µM",69.8%
same,"viability, T/C","second compound 10 µM, first compound 1 µM",62.2%
same,"viability, T/C","second compound 10 µM, first compound 3.16 µM",46.6%
same,"viability, T/C","second compound 10 µM, first compound 10 µM",3.55%
